Experimental findings from US20260166182A1, “CYANINE-BASED FLUOROPHORES” (The General Hospital Corporation, priority 2022, published 2026) are described below.

Series [1] deals with LLC tumor. The series is described as follows: Quantitative 3D FLECT/CT tumor accumulation. The series is classed as in vivo, mouse. The following applies: from 24 h to 48 h post-injection. The method, then:
Quantitative analysis using InSyTe FLECT/CT: 3D fluorescence images were acquired with the TriFoil Imaging InSyTe FLECT/CT, a commercial preclinical imaging system with full 3D fluorescence tomography imaging capability and an inline CT system. Animals were anesthetized with isoflurane during scans. FLECT scans were performed with 116 projections per slice, 780 nm laser for excitation, and 853/45 bandpass fluorescence emission filter. After data collection, fluorescence images were reconstructed using a proprietary FLECT reconstruction engine. CT scans were performed with 360 projections per slice, 35 kV tube voltage, 950 uA tube current, and 100 ms exposure. CT images were reconstructed using the COBRA filtered back-projection algorithm (Exxim, Computing Corporation, Pleasanton, CA). Quantitative analysis of 3D fluorescence images was performed using the VivoQuant 2020 image analysis software (Invicro, Boston, MA). FLECT and CT images were co-registered in VivoQuant 2020. Volumes-of-interest (VOI) were segmented via intensity thresholding, where the threshold limits were set to the local full-width-half-maximum (FWHM) intensity value for the lower threshold bound and local maximum intensity value for the upper threshold bound.

Series [2] in a line: In vivo biodistribution study of NIR fluorophores in CD-1 mice. Further details: species or system mouse. The following applies: 25 nmol intravenous, 4 h post-injection; listed as 18. The method, then: In Vivo Biodistribution Study of NIR Fluorophores: Under the supervision of the MGH IACUC, animals were housed in an AAALAC-certified facility and studied according to institutional protocol #2016N000136. In preparation for injection, CD-1 mice (25-30 g, 6 weeks, Charles River Laboratories, Wilmington, MA) were anesthetized with isoflurane and oxygen. A 10 mM stock solution of NIR fluorophores was prepared in DMSO, and 25 nmol of each molecule was diluted in BSA-containing saline (5 wt/v %) for intraoperative imaging. After 4 h post-injection, mice were imaged. For each experiment, camera exposure time and image normalization were held constant.
Quantitative Analysis: The fluorescence and background intensity of a region of interest (ROI) over each tissue was quantified using ImageJ software (NIH, Bethesda, MD) version 1.45q. The signal-to-background ratio (SBR) was calculated as SBR=fluorescence/background, where background is the signal intensity of neighboring tissues such as muscle. All NIR fluorescence images for a particular fluorophore were normalized identically for all conditions of an experiment.

The subject of series [3] is triple-negative breast adenocarcinoma (E0771 cell). The series is described as follows: NIR-II fluorescence imaging of subcutaneous breast tumor-bearing C57BL/6 mice. The series is classed as in vivo, mouse. The following applies: larger-sized breast tumors. The source says: (§1) General NIR-II fluorescence imaging: A 640×512-pixel InGaAs camera (Ninox640, Raptor Photonics) and macro zoom lens (0-10×; Navitar Zoom 7000 with SWIR coating) along with 900, 1070, 1100, and 1200 nm long-pass (LP) filters from either Thorlab or Edmund optics were used to collect the NIR-II signal. InGaAs camera played a role as an open-air imaging system along with the support of the FLARE system. An 808 nm fiber-coupled diode laser ([…] at the sample) was used as an excitation source. Data acquisition was done using in-house developed software. The mice fur on the region of interest was shaved prior to imaging using a clipper and removed completely using a depilatory cream. 100 μL of SH1 in 5 w/v % BSA saline ([…]) was injected through the tail vein. Mice were imaged with intact skin using InGaAs camera. At least 3 mice were analyzed for each sample. […]
(§2) Statistical analysis: The fluorescence and background intensities of a region of interest over each tissue were quantified using customized imaging software and ImageJ v1.48 (National Institutes of Health, Bethesda, MD). The signal-to-background ratio (SBR) was calculated as SBR=fluorescence/background, where background was the fluorescence intensity of muscle. […] The differences among groups were determined using one-way ANOVA analysis to assess the statistical differences among more than two groups. […]

Series [4] relates to immune cells from bone marrow and tumor tissues. Description: Flow cytometry analysis of fluorophore-targeted immune cells from bone marrow and tumor. The series is classed as in vivo, mouse. How it is done:
Flow cytometry analysis: Bone marrow tissue was mechanically dissociated and digested with collagenase D (175 unit/mL, Roche) and DNase I (100 unit/mL, Roche) followed by EDTA (2 mM, Invitrogen). Erythrocytes were removed using RBC Lysis Buffer (Invitrogen). Tumor tissue was mechanically dissociated and digested with collagenase I (175 unit/mL, Thermo-fisher), Collagenase IV (250 unit/mL, Thermo-fisher, 1700019), and DNase I (100 unit/mL) followed by EDTA ([…]). Immune cells were isolated from cell suspensions of the bone marrow or tumor tissue using Ficoll® Paque Plus (GE Healthcare). Isolated cells were stained with anti-mouse F4/80 (BM8, Biolegend, 123131), anti-mouse Ly-6G (1A8, Biolegend, 127639), anti-mouse Ly-6C(HK1.4, Biolegend, 128011), anti-mouse CD11c (N418, Biolegend, 117313), anti-mouse CD103 (2E7, Biolegend, 121425), anti-mouse I-A/I-E (M5/114.15.2 Biolegend, 107611), anti-mouse/human CD11b (M1/70, Biolegend, 101254) and anti-mouse CD45 antibodies (30-F11, Biolegend, 103105) conjugated to fluorophores. Isolated cells were stained with Live/dead®-Aqua (Life Technologies) to distinguish live cells. Stained cells were fixed using 1% paraformaldehyde prior to analysis. Data acquisition was performed on a Fortessa cytometer (BD) followed by analysis on FlowJo software (Tree Star).

The subject of series [5] is PDAC (Pan02 cell line). The series is described as follows: Tumor targeting in Pan02 inoculated immune-deficient athymic nude mice. The series is classed as in vivo, mouse.
Source text: General NIR-II fluorescence imaging: A 640×512-pixel InGaAs camera (Ninox640, Raptor Photonics) and macro zoom lens (0-10×; Navitar Zoom 7000 with SWIR coating) along with 900, 1070, 1100, and 1200 nm long-pass (LP) filters from either Thorlab or Edmund optics were used to collect the NIR-II signal. InGaAs camera played a role as an open-air imaging system along with the support of the FLARE system. An 808 nm fiber-coupled diode laser ([…] at the sample) was used as an excitation source. Data acquisition was done using in-house developed software. The mice fur on the region of interest was shaved prior to imaging using a clipper and removed completely using a depilatory cream. 100 μL of SH1 in 5 w/v % BSA saline ([…]) was injected through the tail vein. Mice were imaged with intact skin using InGaAs camera. At least 3 mice were analyzed for each sample.
as §2

Series [6] relates to pancreatic ductal adenocarcinoma (PDAC; Pan02 cell). The series is described as follows: NIR-II fluorescence imaging of subcutaneous PDAC tumor-bearing C57BL/6 mice. The series is classed as in vivo, mouse.
Source text: as §1, §2

Each structure is given as a SMILES string. “And” between values parts separate entries of the source, which are not always exact repeats. Equal entries are not always repeated. “Also recorded” adds a separate entry of the source.

On to `CCCCN1/C(=C/C=C2\CCCC(/C=C/C3=[N+](CCCC)c4ccc(Cl)cc4C3(C)C)=C2Cl)C(C)(C)c2cc(Cl)ccc21` [SH1, 1-butyl-2-((E)-2-((E)-3-(2-((E)-1-butyl-5-chloro-3,3-dimethylindolin-2-ylidene)ethylidene)-2-chlorocyclohex-1-en-1-yl)vinyl)-5-chloro-3,3-dimethyl-3H-indol-1-ium], for which, in series [1], the “increase of % ID in cancer area” value is “more than 2 fold”. For the same compound, in series [2], the tissue/organ signals entry is “high signals in the primary and secondary lymphoid tissues; also recorded: higher signals in the bone marrow, spleen, and lymph nodes”. Besides, the TBR was 17.6 in series [3] and approximately 9.5 in series [6] (PDAC less than 5 mm in size, compared to healthy tissue). Also, the “targeted tumor-associated immune cells” value in series [4] (CD11b+ DCs) is reported as 45.4%; in series [4] (CD103+ DCs), 23.8%; in series [4] (Ly6C^high monocyte), 48.6%; in series [4] (Ly6C^low monocyte) it was 43.1%; in series [4] (Macrophage) it was 45.7%. In series [4] (tumor), the “cells identified as targeted TAICs in the tumor region” value was “macrophages, Ly6C^low monocytes, and dendritic cells”. The “tumor-to-muscle signal ratio (TMR)” value in series [5] was ~3.0 and 3.6. The “onset of signals in the cancerous region” value in series [6] (intravenous, until 24 h post-injection) is “did not appear at early time points”.
